Data on three molecules can be found in ChEMBL document CHEMBL5038586, “Thiazolidinedione "Magic Bullets" Simultaneously Targeting PPARγ and HDACs: Design, Synthesis, and Investigations of their In Vitro and In Vivo Antitumor Effects” (J Med Chem, 2021).

pIC50: −log10 of the molar value. Activity calls are given as the source filed them. No cut-off for these calls is given here.

Data set [1] deals with SH-SY5Y. Kind of data set: Cytotoxicity against human SH-SY5Y cells assessed as cell death incubated for 20 hrs measured by DNS assay. Format: functional.
Data set [2] relates to HS27. Kind of data set: Cytotoxicity against human HS-27 cells assessed as cell death incubated for 20 hrs measured by DNS assay. To be noted: hs27, 20 h. Type of data set: toxicity, cell-based.
A short description of data set [3]: Toxicity in SCID mouse xenografted with human CEM cells assessed as behavioral changes at 50 mg/kg, ip. Type of data set: organism-based, CCRF-CEM. To be noted: in vivo.
The target in data set [4] is T1, Histone deacetylase 8 (Homo sapiens, UniProt Q9BY41).
T1 sequence (Q9BY41 whole entry): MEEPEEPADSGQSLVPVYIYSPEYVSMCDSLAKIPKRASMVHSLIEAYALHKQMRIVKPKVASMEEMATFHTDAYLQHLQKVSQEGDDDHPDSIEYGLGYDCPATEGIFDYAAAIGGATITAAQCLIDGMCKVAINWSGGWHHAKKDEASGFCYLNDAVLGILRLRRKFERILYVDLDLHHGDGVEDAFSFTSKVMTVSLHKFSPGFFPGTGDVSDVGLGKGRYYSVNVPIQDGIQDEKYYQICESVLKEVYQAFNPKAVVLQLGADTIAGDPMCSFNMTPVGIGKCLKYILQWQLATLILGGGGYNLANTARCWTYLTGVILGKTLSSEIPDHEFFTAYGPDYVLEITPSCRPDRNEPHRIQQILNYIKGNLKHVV
The experiment in a line: Inhibition of recombinant human HDAC8 using Boc-Lys (trifluoroacetyl)-AMC as substrate preincubated for 1 hr followed by substrate addition and measured after 1 hr by micro plate reader analysis.

Data set [5] in a line: Toxicity in SCID mouse xenografted with human CEM cells assessed as effect on body weight at 50 mg/kg, ip. Format: organism-based, CCRF-CEM. To be noted: in vivo.
Data set [6] has as its system HeLa. Kind of data set: Cytotoxicity against human HeLa cells assessed as cell death incubated for 20 hrs measured by DNS assay. Type of data set: functional.
Data set [7] concerns Ramos. Kind of data set: Cytotoxicity against human Ramos cells assessed as cell death incubated for 20 hrs measured by DNS assay. Type of data set: functional.
Data set [8] deals with T2, Histone deacetylase 4 (Homo sapiens, UniProt P56524). Kind of data set: Inhibition of recombinant human HDAC4 using Boc-Lys (trifluoroacetyl)-AMC as substrate preincubated for 1 hr followed by substrate addition and measured after 1 hr by micro plate reader analysis.
Data set [9] has as its system CCRF-CEM. Kind of data set: Cytotoxicity against human CEM cells assessed as cell death incubated for 20 hrs measured by DNS assay. Type of data set: functional.
The test system of data set [10] is Ramos. The experiment in a line: Cytotoxicity against human Ramos cells assessed as cell death incubated at 10 uM for 20 hrs measured by DNS assay. Type of data set: functional.
Data set [11] has as its system CCRF-CEM. The experiment in a line: Cytotoxicity against human CEM cells assessed as cell death incubated at 10 uM for 20 hrs measured by DNS assay. Type of data set: functional.
The nature of data set [12]: Selectivity index, ratio of CC50 for human HS-27 cells to CC50 for human HeLa cells. Type of data set: functional.
In data set [13] the target is T3, Histone deacetylase 8 (Homo sapiens) (UniProt Q9BY41).
T3 sequence (whole entry): T1 sequence (Q9BY41 whole entry)
Kind of data set: Inhibition of recombinant human HDAC8 using Boc-Lys (trifluoroacetyl)-AMC as substrate ay 35 uM preincubated for 1 hr followed by substrate addition and measured after 1 hr by micro plate reader analysis.

In data set [14] the test system is HL-60. Kind of data set: Cytotoxicity against human HL-60 cells assessed as cell death incubated at 10 uM for 20 hrs measured by DNS assay. Format: functional.
The nature of data set [15]: Selectivity index, ratio of CC50 for human HS-27 cells to CC50 for human Ramos cells. Type of data set: functional.
Data set [16] addresses T2, Histone deacetylase 4. The experiment in a line: Inhibition of recombinant human HDAC4 using Boc-Lys (trifluoroacetyl)-AMC as substrate ay 35 uM preincubated for 1 hr followed by substrate addition and measured after 1 hr by micro plate reader analysis.
Data set [17] is described as follows: Selectivity index, ratio of CC50 for human HS-27 cells to CC50 for human MDA-MB-231 cells. Format: functional.
The nature of data set [18]: Selectivity index, ratio of CC50 for human HS-27 cells to CC50 for human SH-SY5Y cells. Format: functional.
The subject of data set [19] is MDA-MB-231. Kind of data set: Cytotoxicity against human MDA-MB-231 cells assessed as cell death incubated for 20 hrs measured by DNS assay. Format: functional.
Data set [20] concerns SH-SY5Y. The experiment in a line: Cytotoxicity against human SH-SY5Y cells assessed as cell death incubated at 10 uM for 20 hrs measured by DNS assay. Type of data set: functional.
Data set [21] has as its system MDA-MB-231. The experiment in a line: Cytotoxicity against human MDA-MB-231 cells assessed as cell death incubated at 10 uM for 20 hrs measured by DNS assay. Type of data set: functional.
Data set [22] in a line: Toxicity in SCID mouse xenografted with human CEM cells assessed as effect on body weight at 20 mg/kg, ip. Format: organism-based, CCRF-CEM. To be noted: in vivo.

T2 sequence (P56524 whole entry): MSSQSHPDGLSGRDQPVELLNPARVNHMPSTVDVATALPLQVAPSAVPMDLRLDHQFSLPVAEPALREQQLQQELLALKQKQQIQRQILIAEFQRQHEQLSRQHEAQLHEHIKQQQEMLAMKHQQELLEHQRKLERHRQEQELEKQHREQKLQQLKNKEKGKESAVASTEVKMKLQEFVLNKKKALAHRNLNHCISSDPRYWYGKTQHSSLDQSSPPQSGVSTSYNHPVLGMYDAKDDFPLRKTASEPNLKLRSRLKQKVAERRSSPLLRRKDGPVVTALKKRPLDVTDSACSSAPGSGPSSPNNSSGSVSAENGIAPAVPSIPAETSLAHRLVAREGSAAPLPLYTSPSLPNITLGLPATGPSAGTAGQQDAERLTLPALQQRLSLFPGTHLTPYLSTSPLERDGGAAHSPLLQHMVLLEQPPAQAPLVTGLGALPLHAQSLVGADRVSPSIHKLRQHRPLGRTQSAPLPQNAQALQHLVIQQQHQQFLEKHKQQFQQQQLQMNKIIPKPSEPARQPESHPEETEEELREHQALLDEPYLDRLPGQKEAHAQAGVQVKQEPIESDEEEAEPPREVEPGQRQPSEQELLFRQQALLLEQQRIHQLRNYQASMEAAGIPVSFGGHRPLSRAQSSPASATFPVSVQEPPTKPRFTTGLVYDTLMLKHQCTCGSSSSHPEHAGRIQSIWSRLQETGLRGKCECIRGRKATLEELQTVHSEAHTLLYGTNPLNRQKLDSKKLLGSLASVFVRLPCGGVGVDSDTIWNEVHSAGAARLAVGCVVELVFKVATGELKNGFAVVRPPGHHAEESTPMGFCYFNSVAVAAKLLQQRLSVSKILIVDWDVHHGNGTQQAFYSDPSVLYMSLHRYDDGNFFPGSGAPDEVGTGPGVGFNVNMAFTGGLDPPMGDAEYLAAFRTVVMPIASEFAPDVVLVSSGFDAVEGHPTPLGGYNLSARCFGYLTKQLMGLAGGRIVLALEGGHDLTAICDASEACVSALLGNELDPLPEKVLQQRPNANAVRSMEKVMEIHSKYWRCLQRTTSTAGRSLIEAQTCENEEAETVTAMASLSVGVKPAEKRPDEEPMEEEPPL

For the molecule `Cc1ccc(NC(=O)COc2ccc3cc(/C=C4/SC(=O)NC4=O)ccc3c2)cc1`, the 50% cytotoxic concentration (CC50) was determined as 49.5 µM in data set [1]; 40.2 µM in data set [2]; 10.3 µM in data set [6]; 7 µM in data set [7]; 2.8 µM in data set [9]. Also, the Activity entry in data set [3] and in data set [5] was “Non-Toxic” throughout. Besides, the values for the pIC50 in [4] and in data set [8] were 5.05 and 5.77, respectively.
Consider `O=C(COc1ccc2cc(/C=C3/SC(=O)NC3=O)ccc2c1)Nc1ccccc1Oc1ccccc1`, for which the Activity in data set [10] is reported as above 40%; in data set [11], 40.24%; in data set [14], 0%; in [20], above 40%; in data set [21] it was above 40%. Besides, the CC50 was 52.3 µM in data set [1], 10.2 µM in data set [6], 10.3 µM in [19] and 10 µM in data set [7]. The “Selectivity Index” value in [12], in [15], in data set [17] and in data set [18] was above 10 throughout. Besides, the inhibition entry in [13] and in data set [16] was “Active” in each case. Further, the figures for the pIC50 in data set [4] and in data set [8] were below 4.30 and 5.28, respectively.
As to `COc1cccc2c1C(=O)c1c(O)c3c(c(O)c1C2=O)C[C@@](O)(C(=O)CO)C[C@@H]3O[C@H]1C[C@H](N)[C@H](O)[C@H](C)O1` [DOXORUBICIN], in data set [22], the Activity result is given as “Non-Toxic”.
